This is an account of results in US8785453B2, “Arylpiperazine-containing purine derivatives and uses thereof” (Green Cross Corporation, priority 2009, dated 2014).

Assay [1] relates to mice. Kind of assay: Synergy effect of the inventive compound combined with conventional anti-depressants in forced swimming test. It counts as in vivo. Conditions: for anti-immobility effect in FST, anti-depressant alone: 25 mg/kg p.o.
Protocol: Each drug or vehicle was suspended in 3% Tween 80 solution and administered orally (p.o.) 60 min before forced swimming test.
The target of assay [2] is T1, human recombinant 5-HT2C receptor (Homo sapiens, UniProt P28335).
T1 construct: purchased PerkinElmer
T1 sequence (P28335 33-458): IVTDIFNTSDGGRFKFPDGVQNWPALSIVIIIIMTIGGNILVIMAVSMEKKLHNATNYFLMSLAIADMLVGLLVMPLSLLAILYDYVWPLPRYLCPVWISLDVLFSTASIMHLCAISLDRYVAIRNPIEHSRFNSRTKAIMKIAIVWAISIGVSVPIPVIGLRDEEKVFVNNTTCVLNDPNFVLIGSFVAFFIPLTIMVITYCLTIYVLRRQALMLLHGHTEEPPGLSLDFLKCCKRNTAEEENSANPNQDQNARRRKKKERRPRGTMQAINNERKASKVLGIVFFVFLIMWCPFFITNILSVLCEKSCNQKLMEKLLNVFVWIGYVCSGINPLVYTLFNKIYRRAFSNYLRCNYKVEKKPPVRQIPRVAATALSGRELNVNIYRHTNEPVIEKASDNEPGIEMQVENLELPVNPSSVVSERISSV
Kind of assay: Binding affinity for serotonin 5-HT2C receptor ([3H]Mesulergine). The settings on record: CHO-K1 membranes, 1.3 nM [3H]Mesulergine; read-out: binding affinity (IC50) 5-HT2C. The method, then:
(§1) Receptor binding affinities of the compounds for serotonin receptors were measured by the method described in the literature (see [Park W K et al., Pharmacol Biochem Behav., 82(2), 361-372 (2005)].
(§2) The binding affinity (IC50) of a compound for the receptor was calculated by computerized nonlinear regression analysis (GraphPad Prism Program, San Diego, USA) using 7-8 varied concentrations of the compound run in duplicate tubes.
For serotonin 5-HT2C binding, frozen membranes from stable CHO-K1 cell line expressing the human recombinant 5-HT2C receptor (PerkinElmer, 4 μg/well), [^3H]Mesulergine (Amersham, 1.3 nM) and test compounds were added into 50 mM Tris-HCl (pH 7.4) buffer containing 0.1% ascorbic acid and 4 mM CaCl2. Nonspecific binding was determined using 100 μM mianserin. The incubations were performed for 60 min at 27, and these were terminated by rapid filtration through filtermate A glass fiber filter presoaked in 0.5% PEI.

Assay [3] deals with mice. Nature of the assay: Anti-depressants activity in forced swimming test. It counts as in vivo. Conditions: 60 min before testing.
Protocol: Each mouse was placed in a 25 cm glass cylinder (10 cm diameter) containing 15 cm of water maintained at 22±1, and was forced to swim for 10 min. 24 hours later, the mouse was replaced into the cylinder and the total duration of immobility was recorded during the last 5 min of the 6-min testing period. Mice are judged immobile when they float in an upright position and make only small movements to keep their head above water. Test drugs were suspended in 3% Tween 80 solution, and administered orally (po) 60 min before the testing.
The target of assay [4] is T2, human serotonin transporter (Homo sapiens, UniProt P31645).
T2 construct: purchased PerkinElmer; host or cells: HEK-293 cells
Kind of assay: Binding affinity for serotonin transporter ([3H]Imipramine). The settings on record: HEK-293 membrane, 2 nM [3H]Imipramine; read-out: binding affinity Serotonin Transporter. As for the experimental part: For serotonin transporter binding assays, a reaction mixture with a final volume of 0.25 ml was prepared by mixing a test compound, human serotonin transporter membrane expressed in HEK-293 cells (PerkinElmer, 5 μg/well), [^3H] Imipramine (PerkinElmer, 2 nM) and 50 mM Tris-HCl (pH 7.4) buffer containing 120 mM NaCl and 5 mM KCl. The reaction mixture was incubated for 30 min at 27, and harvested through filtermate A glass fiber filter presoaked in 0.5% PEI with ice cold 50 mM Tris-HCl buffer (pH 7.4) containing 0.9% NaCl.

Assay [5] deals with T3, human recombinant serotonin 5-HT2A receptor (Homo sapiens, UniProt P28223).
T3 construct: purchased PerkinElmer Life and Analytical Sciences, USA; host or cells: CHO-K1 cells
Kind of assay: Binding affinity for serotonin 5-HT2A receptor ([3H]Ketanserin). The settings on record: CHO-K1 cells, 1 nM [3H]Ketanserin; read-out: binding affinity (IC50) 5-HT2A. As for the experimental part: as §1
For serotonin 5-HT2A binding, an aliquot of human recombinant serotonin 5-HT2A receptor (PerkinElmer Life and Analytical Sciences, USA) expressed in CHO-K1 cells (5 μg/well) and 1 nM [^3H]Ketanserin (PerkinElmer) were used in the presence of mianserin (20 μM) as a nonspecific. The reaction mixture was incubated for 60 min […] 50 mM Tris-HCl (pH 7.4) buffer containing 4 mM CaCl2 and 0.1% ascorbic acid, and harvested through filtermate A glass fiber filter (Wallac, Finland) presoaked in 0.5% polyethyleneimine (PEI) by microbeta filtermate-96 harvester (PerkinElmer) to terminate the reaction, and then washed with ice cold 50 mM Tris-HCl buffer solution (pH 7.4). The filter was then covered with MeltiLex, sealed in a sample bag, dried in an oven. The radioactivity retained in the filter was finally counted using MicroBeta Plus (Wallac).
as §2

T2 sequence (P31645 whole entry): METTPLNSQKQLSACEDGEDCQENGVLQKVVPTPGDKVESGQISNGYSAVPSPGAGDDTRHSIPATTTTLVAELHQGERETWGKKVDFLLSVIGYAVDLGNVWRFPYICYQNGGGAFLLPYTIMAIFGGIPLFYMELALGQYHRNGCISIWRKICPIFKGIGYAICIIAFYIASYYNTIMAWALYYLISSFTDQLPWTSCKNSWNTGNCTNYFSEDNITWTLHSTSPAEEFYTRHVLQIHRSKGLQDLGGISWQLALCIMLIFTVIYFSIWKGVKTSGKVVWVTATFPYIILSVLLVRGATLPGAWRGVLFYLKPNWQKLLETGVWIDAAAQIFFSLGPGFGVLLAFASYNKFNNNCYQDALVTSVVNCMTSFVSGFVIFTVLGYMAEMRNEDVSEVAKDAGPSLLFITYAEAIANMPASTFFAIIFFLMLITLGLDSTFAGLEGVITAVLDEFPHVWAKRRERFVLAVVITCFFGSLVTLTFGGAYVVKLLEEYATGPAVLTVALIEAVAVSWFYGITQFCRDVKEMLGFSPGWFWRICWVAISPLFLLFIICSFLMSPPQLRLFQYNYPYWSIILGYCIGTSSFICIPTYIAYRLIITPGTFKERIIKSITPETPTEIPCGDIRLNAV
T3 sequence (P28223 whole entry): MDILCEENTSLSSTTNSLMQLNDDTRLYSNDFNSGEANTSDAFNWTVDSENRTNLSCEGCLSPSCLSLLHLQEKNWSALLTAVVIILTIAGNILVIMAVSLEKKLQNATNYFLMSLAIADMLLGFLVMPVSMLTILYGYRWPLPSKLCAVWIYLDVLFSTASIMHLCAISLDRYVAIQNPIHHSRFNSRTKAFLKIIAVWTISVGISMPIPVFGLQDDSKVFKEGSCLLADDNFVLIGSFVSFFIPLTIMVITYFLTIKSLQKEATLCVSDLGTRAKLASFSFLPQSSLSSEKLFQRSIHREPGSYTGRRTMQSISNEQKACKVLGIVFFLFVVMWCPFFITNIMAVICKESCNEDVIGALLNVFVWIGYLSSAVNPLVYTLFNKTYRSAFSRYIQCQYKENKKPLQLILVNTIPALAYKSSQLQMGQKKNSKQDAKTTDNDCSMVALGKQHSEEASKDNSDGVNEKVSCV

With `COc1ccc(C(CN(C)C)C2(O)CCCCC2)cc1` (stereo not shown) [Effexor], the “anti-immobility effect in FST, anti-depressant alone” value in assay [1] is “did not improve the anti-immobility effect”.
For `CCc1nc2c(NCCN3CCN(c4cccc(C)c4C)CC3)ncnc2n1-c1ccc(F)cc1` [Example 56, N-(2-(4-(2,3-dimethylphenyl)piperazin-1-yl)ethyl)-8-ethyl-9-(4-fluorophenyl)-9H-purine-6-amine], the IC50 in assay [2] came out at 76.5 nM; in assay [4], 146 nM; in assay [5], 7.5 nM. Also, the “Immobility in forced swimming test” value is given as 71.41 ± 10.84% in assay [3] (25 mg/kg po) and 77.46 ± 12.27% in assay [3] (50 mg/kg po).
Regarding `Cc1cccc(N2CCN(CCCCNc3ncnc4c3nc(-c3ccccc3)n4-c3ccccc3)CC2)c1C` [Example 68, N-(4-(4-(2,3-dimethylphenyl)piperazin-1-yl)butyl)-8,9-diphenyl-9H-purine-6-amine], the IC50 was determined as 4.7 nM in assay [2], 146 nM in assay [4] and 2.4 nM in assay [5]. Also, the figures for the “Immobility in forced swimming test” value in assay [3] (25 mg/kg po) and in assay [3] (50 mg/kg po) were 78.66 ± 11.33% and 72.11 ± 7.63%, respectively. Also, the “efficacy in forced swimming test, compound alone” value in assay [1] (12.5 mg/kg or 25 mg/kg p.o.) is recorded as “do not demonstrate efficacy on animal model”.
Turning to `Cc1cccc(N2CCN(CCCNc3ncnc4c3nc(C)n4-c3ccc(Cl)cc3)CC2)c1C` [Example 70, 9-(4-chlorophenyl)-N-(3-(4-(2,3-dimethylphenyl)piperazin-1-yl)propyl)-8-methyl-9H-purine-6-amine], the IC50 turned out to be 316 nM in assay [2], 43.8 nM in assay [4] and 54.3 nM in assay [5]. Further, the “Immobility in forced swimming test” value is reported as 80.67 ± 12.19% in assay [3] (25 mg/kg po) and 53.34 ± 10.82% in assay [3] (50 mg/kg po).
Take `Cc1cccc(N2CCN(CCCNc3ncnc4c3nc(C)n4-c3ccc(C(F)(F)F)cc3)CC2)c1C` [Example 76, N-(3-(4-(2,3-dimethylphenyl)piperazin-1-yl)propyl)-8-methyl-9-(4-(trifluoromethyl)phenyl)-9H-purine-6-amine]: the values for the IC50 in assay [2], in assay [4] and in assay [5] were 453 nM, 128 nM and 43.1 nM, respectively. Moreover, the entries for the “Immobility in forced swimming test” value in assay [3] (25 mg/kg po) and in assay [3] (50 mg/kg po) were 79.98 ± 7.42% and 90.13 ± 4.29%, respectively.
On to `Cc1cccc(N2CCN(CCCNc3ncnc4c3nc(-c3ccccc3)n4-c3ccc4c(c3)OCO4)CC2)c1C` [Example 83, 9-(benzo[d][1,3]dioxol-5-yl)-N-(3-(4-(2,3-dimethylphenyl)piperazin-1-yl)propyl)-8-phenyl-9H-purine-6-amine], for which the IC50 worked out at 198 nM in assay [2], 42 nM in assay [4] and 30 nM in assay [5]. The “Immobility in forced swimming test” value in assay [3] (25 mg/kg po) was found to be 70.43 ± 6.15%.
Take `CSc1ccc(-n2c(C)nc3c(NCCCN4CCN(c5cccc(C)c5C)CC4)ncnc32)cc1.Cl` [Example 86, N-(3-(4-(2,3-dimethylphenyl)piperazin-1-yl)propyl)-8-methyl-9-(4-(methylthio)phenyl)-9H-purine-6-amine hydrochloride]: the IC50 amounted to 376 nM in assay [2], 64 nM in assay [4] and 25 nM in assay [5]. In addition, in assay [3] (25 mg/kg po), the “Immobility in forced swimming test” value was found to be 66.53 ± 8.35%.
`CCc1nc2c(NCCN3CCN(c4cccc(C)c4C)CC3)ncnc2n1-c1ccc(SC)cc1.Cl` [Example 87, N-(2-(4-(2,3-dimethylphenyl)piperazin-1-yl)ethyl)-8-ethyl-9-(4-(methylthio)phenyl)-9H-purine-6-amine hydrochloride]: the IC50 in assay [2] is 100 nM; in assay [4], 136 nM; in assay [5] it was 9.3 nM. In assay [3] (25 mg/kg po), the “Immobility in forced swimming test” value is listed as 88.26 ± 6.05%.
With `Cc1cccc(N2CCN(CCNc3ncnc4c3nc(-c3cccs3)n4-c3ccccc3)CC2)c1C.Cl` [Example 91, N-(2-(4-(2,3-dimethylphenyl)piperazin-1-yl)ethyl)-9-phenyl-8-(thiophen-2-yl)-9H-purine-6-amine hydrochloride], the results for the IC50 in assay [2], in assay [4] and in assay [5] were 141 nM, 316 nM and 28 nM, respectively. The “Immobility in forced swimming test” value in assay [3] (25 mg/kg po) was 89.19 ± 9.17%.
With `Cc1cccc(N2CCN(CCCNc3ncnc4c3nc(-c3cccs3)n4-c3ccccc3)CC2)c1C.Cl` [Example 92, N-(3-(4-(2,3-dimethylphenyl)piperazin-1-yl)propyl)-9-phenyl-8-(thiophen-2-yl)-9H-purine-6-amine hydrochloride], the figures for the IC50 in assay [2], in assay [4] and in assay [5] were 301 nM, 38.9 nM and 17 nM, respectively. For the same molecule, in assay [3] (25 mg/kg po), the “Immobility in forced swimming test” value amounted to 85.86 ± 8.90%.
Turning to `CNCCC(Oc1ccc(C(F)(F)F)cc1)c1ccccc1` (stereo not shown) [Prozac], in assay [1], the “anti-immobility effect in FST, anti-depressant alone” value is “did not improve the anti-immobility effect”.
